Results taken from the METLIN SMRT retention time set (Domingo-Almenara et al. 2019).

Assay: gradient 5% acetonitrile 3 min, to 50% in 2 min, to 85% in 15 min, held 3 min, 100 µL/min
Settings: column: Zorbax Extend-C18 2.1 x 50 mm; eluents: water / acetonitrile, 0.1% formic acid
Outline: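 Retention times of pure standards were taken from adduct peaks that were selected by computer and manually inspected. Over 3 months, mixtures of ~100 molecules were run by HPLC–quadrupole time-of-flight mass spectrometry in positive and negative ionization mode. The Zorbax Extend-C18 column (2.1 × 50 mm, 1.8 μm) ran at 100 μL/min in water and acetonitrile, each containing 0.1% formic acid, with 40 μL dead volume and 900 μL dwell volume.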
COc1cc(Cl)c(NS(=O)(=O)c2c(C)sc(C)c2-c2n[nH]c(C)c2C)c(OC)c1 showed an RP-LC retention time of 980 s. With O=C(Cc1cccc(F)c1)N1CCC2(CC1)N=C(c1ccc(Cl)cc1)NO2 the RP-LC retention time was 912 s. O=C(c1c(-c2ccccc2)nnc2ccccc12)N1CCN(c2ccccn2)CC1 gave an RP-LC retention time of 605 s. With CCCCOC(=O)CSc1nnc(-c2cc(OC)c(OC)c(OC)c2)o1 the RP-LC retention time was 1000 s. CCN(CC)S(=O)(=O)c1ccc2c(c1)N(CC(=O)NCCCOC)C(=O)C1CCCCN21 (configuration not stated) showed an RP-LC retention time of 802 s. For O=c1n(Cc2ccc(Cl)cc2)nc2c(S(=O)(=O)N3CCOCC3)cccn12, the RP-LC retention time was 808 s. Work on COCCCNC(=O)C1(C)Cn2nc(-c3ccccc3)cc2C(=O)N1Cc1cc(OC)ccc1OC (configuration not stated) yielded an RP-LC retention time of 903 s. Compound Cc1cccc(NC(=O)Cn2c(=O)n(-c3ccc(F)cc3)c3ncccc32)c1 has an RP-LC retention time of 876 s. Compound Cc1nc2ncnn2c(N2CCC(C)CC2)c1C has an RP-LC retention time of 1020 s. CC1(C)CC(=O)c2cn(-c3ccc(F)cc3)c(=O)c(C(=O)N3CCOCC3)c2C1 gave an RP-LC retention time of 695 s. CCCNC(=O)C1CCCN(c2ccc(SCC(=O)Nc3ccc(Cl)cc3)nn2)C1 (configuration not stated) showed an RP-LC retention time of 712 s. In the case of CC1CCN(S(=O)(=O)c2ccc3nc(N4CCN(c5ccccc5F)CC4)ccc3c2)CC1, the RP-LC retention time is reported as 1260 s. In the case of CCn1cc(-c2nc(C(=O)Nc3cc(OC)ccc3OC)cs2)c2cccnc21, the RP-LC retention time is reported as 1170 s. With CC(C)NC(=O)C1CCCN(c2nc3ncn(CC(=O)Nc4ccc5c(c4)CCC5)c(=O)c3s2)C1 (configuration not stated) the RP-LC retention time was 709 s. With CNC(=O)c1sc2nc(-c3ccc(OC)cc3)c(NCCOC)n2c1C the RP-LC retention time was 656 s. Work on CCCn1cc(C2=CCN(S(=O)(=O)Cc3ccc(Cl)cc3)CC2)c2cccnc21 yielded an RP-LC retention time of 1100 s. Cc1ccc(C)c(NC(=O)CSc2cc(N3CCN(c4ccccc4F)CC3)ncn2)c1 showed an RP-LC retention time of 1160 s. For Cc1ccc(N2CCn3c2nc2c3c(=O)n(CC(=O)O)c(=O)n2C)cc1C, the RP-LC retention time was 771 s. With O=C(NC1CCN(c2cc(-c3cccs3)[nH]n2)C1)c1ccncc1 (configuration not stated) the RP-LC retention time was 612 s. For CCOc1ccc2ncc(S(=O)(=O)c3ccc(Cl)cc3)c(N3CCN(CC)CC3)c2c1, the RP-LC retention time was 685 s. With Cc1[nH]c(C(=O)N2CCC(CC(=O)NCCc3c[nH]c4ccccc34)CC2)c(C)c1C the RP-LC retention time was 674 s. In the case of Cc1cccc(-c2nc3ccccn3c2NC(=O)NC2CCCC2)c1, the RP-LC retention time is reported as 639 s. Compound Cc1nc(-c2noc(-c3ccncc3)n2)cn1CC(=O)N1CCN(c2ccc(F)cc2)CC1 has an RP-LC retention time of 689 s. For COc1ccc(-c2csc(Nc3cc(C)ccn3)n2)cc1, the RP-LC retention time was 783 s. Work on NC(=O)c1nsc2c(=O)n(CC(=O)NCc3ccco3)cnc12 yielded an RP-LC retention time of 589 s. For CCCNC(=O)c1cn(-c2cc(-c3nc(C(C)(C)C)no3)ccn2)cn1, the RP-LC retention time was 934 s. With COc1ccccc1NC(=O)N1CCC(c2nnc(-c3ccccc3OC)s2)CC1 the RP-LC retention time was 825 s. For CN1C(=O)[C@H]2CN(Cc3ccccc3C#N)C[C@H]2C1=O, the RP-LC retention time was 650 s. Work on COc1ccc(C(=O)N2CCC3(CC2)NCc2ccccc2-n2ccnc23)cc1OC yielded an RP-LC retention time of 594 s. For CCN(CC)CCNC(=O)CN1CC(C)Sc2ccccc21 (configuration not stated), the RP-LC retention time was 656 s. Work on Cc1ccc(C)c(CNC(=O)C2CCCN(c3cnc4nccnc4c3)C2)c1 (configuration not stated) yielded an RP-LC retention time of 759 s. With CCc1cccc(NC(=O)Cn2nc(N3CCC(C)CC3)c3ccccc3c2=O)c1 the RP-LC retention time was 1220 s. For CN(C)c1cccc(/C=C(\C#N)c2ccccc2)c1, the RP-LC retention time was 1100 s. For Nc1cc(C2CCN(C(=O)Nc3cc(F)c(F)c(F)c3)CC2)no1, the RP-LC retention time was 765 s. In the case of CC(C)c1ccc(NC(=O)C2CCCN(c3nc4ccccc4nc3C(F)(F)F)C2)cc1 (configuration not stated), the RP-LC retention time is reported as 957 s. CC1=NS(=O)(=O)N(C)C=C1C(=O)OCc1c(C)noc1C showed an RP-LC retention time of 776 s. Work on COc1ccccc1Nc1c(-c2ccc(SC)cc2)nc2cnccn12 yielded an RP-LC retention time of 974 s. Compound COc1ccc(-c2nc(C3CC(=O)N(c4ccc(F)cc4)C3)no2)cc1OC (configuration not stated) has an RP-LC retention time of 884 s. CCOC(=O)c1c(C)[nH]c(C(=O)N2CCCC(C(=O)NCc3ccc4c(c3)OCO4)C2)c1C (configuration not stated) gave an RP-LC retention time of 770 s. Compound O=C(Oc1cccc([N+](=O)[O-])c1)N1CCCCC1 has an RP-LC retention time of 896 s. With Cc1ccc(-n2c(=O)n(CC(=O)Nc3ccccc3C)c3cccnc32)cc1 the RP-LC retention time was 865 s. Cc1noc(C)c1-c1ccc(S(=O)(=O)Nc2cccc(C#N)c2)cc1 showed an RP-LC retention time of 874 s. Work on CCC1Oc2ccc(S(=O)(=O)N3CCC(C(=O)Nc4cc(C)ccc4C)CC3)cc2NC1=O (configuration not stated) yielded an RP-LC retention time of 837 s. In the case of CCCN(C)C(=O)C1CCN(c2cn[nH]c(=O)c2)CC1, the RP-LC retention time is reported as 597 s. Work on Cn1c(=O)c2c(ncn2CC(=O)N2CCCC(c3nc(C4CCOCC4)no3)C2)n(C)c1=O (configuration not stated) yielded an RP-LC retention time of 613 s. With CC1(C)Cc2cccc(OCc3ccc(C(=O)NCc4ccccn4)cc3)c2O1 the RP-LC retention time was 663 s. Work on Fc1ccc(-c2noc3ncnc(N4CCN(c5ccccn5)CC4)c23)cc1 yielded an RP-LC retention time of 660 s. Work on CCN1C(=O)COc2ccc(-c3noc(-c4cc(OC)cc(OC)c4)n3)cc21 yielded an RP-LC retention time of 1040 s. O=C(NCc1ccco1)C1CCCN(C(=O)c2cccn2-c2cccnc2)C1 (configuration not stated) gave an RP-LC retention time of 600 s. For CCn1c(=O)oc2cc(-c3noc(-c4ccc(OC)cc4)n3)ccc21, the RP-LC retention time was 976 s. Work on CCCCNC(=O)C1CCCN(C(=O)c2[nH]c(C)c(C(=O)OC(C)C)c2C)C1 (configuration not stated) yielded an RP-LC retention time of 754 s. O=C(NCCS(=O)(=O)N1CCN(c2ncccn2)CC1)Nc1cccs1 gave an RP-LC retention time of 664 s. O=C(O)c1ccc(Nc2c(-c3cccc(Br)c3)nc3cnccn23)cc1 gave an RP-LC retention time of 736 s. CCN(CC)S(=O)(=O)c1c(C)nc2sc(C)nn12 showed an RP-LC retention time of 760 s. For CN(C)C(=O)Oc1cc(OC(=O)N(C)C)cc(C(O)CNC(C)(C)C)c1 (configuration not stated), the RP-LC retention time was 688 s. For COc1ccccc1-c1noc(C2CCCN2C(=O)Nc2cc(C)ccc2C)n1 (configuration not stated), the RP-LC retention time was 906 s. In the case of CCOC(=O)CC1=CC(SCC(=O)N(C)c2ccccc2)=Nc2ccccc2N1, the RP-LC retention time is reported as 1100 s. With O=C(Cn1cnc2c(sc3nc(-c4ccccc4)ccc32)c1=O)Nc1cccc(Br)c1 the RP-LC retention time was 1110 s. For CCc1c(C2CCN(C(=O)NCCc3ccccc3)CC2)noc1N, the RP-LC retention time was 732 s. Compound COC(=O)c1ccc(NC(=O)c2sc(-c3cn(C)c4ncccc34)nc2C)cc1 has an RP-LC retention time of 1080 s. For CCOc1ccc(NC(=O)c2cc(=O)c3cc(Cl)c(C)cc3o2)c2cccnc12, the RP-LC retention time was 714 s. Compound Cc1nc(Nc2ccc(F)cn2)sc1C(=O)N1CCN(c2ccc(F)cc2)CC1 has an RP-LC retention time of 861 s. In the case of CCCn1c(=O)sc2cc(S(=O)(=O)N3CCN(C(=O)C4CCN(C(C)=O)CC4)CC3)ccc21, the RP-LC retention time is reported as 722 s. O=C(CCc1cccc2[nH]ccc12)NCc1ccc(N2CCCCC2)cc1 showed an RP-LC retention time of 612 s. COc1ccccc1-c1nnc(-c2ccc(OC)c(S(=O)(=O)N3CCCCCC3)c2)o1 gave an RP-LC retention time of 1010 s. With Cn1ncc2c3ccccc3n(CC(=O)NCCc3c[nH]c4ccc(Cl)cc34)c2c1=O the RP-LC retention time was 860 s. With CN(C[C@@H]1COCCO1)S(=O)(=O)Nc1ccc2ccc3ncc(-c4cnn(C)c4)cc3c(=O)c2c1 the RP-LC retention time was 778 s. With Cn1c(=O)c(SCC(=O)NCCN2CCCCC2)nc2ccccc21 the RP-LC retention time was 594 s. For Cn1nc(-c2nnc(-c3ccc(F)cc3)o2)c2c1CCN(S(=O)(=O)c1ccc(F)cc1)C2, the RP-LC retention time was 903 s. In the case of Cc1nc2c(ccc3nc(NC(=O)c4ccc(Cl)s4)sc32)s1, the RP-LC retention time is reported as 986 s. For CCCN(CCC#N)C(=O)CN1CC2=C(C1=O)C(c1ccccc1Cl)NC(=O)N2C (configuration not stated), the RP-LC retention time was 634 s. Cc1cc(NCCCC(=O)NC2CC2)n2nc(-c3cccnc3)nc2n1 gave an RP-LC retention time of 577 s. Compound CCCCNC(=O)C1CCc2nc(N3CCC(C)CC3)ncc2C1 (configuration not stated) has an RP-LC retention time of 758 s. In the case of COc1ccc(CNC(=O)c2cc3sccc3n2Cc2ccc(F)cc2)cc1, the RP-LC retention time is reported as 1080 s. With COc1ccc(OC)c(NC(=O)Cn2c(=O)n(-c3ccccc3)c3ncccc32)c1 the RP-LC retention time was 841 s. In the case of O=C(NCCc1ccccc1)Nc1ccc(-c2nc(-c3ccccc3)co2)cc1, the RP-LC retention time is reported as 1080 s. With CN(C)C[C@@H]1CN(C2CCOCC2)C[C@H]1NC(=O)C1(c2ccccc2)CC1 the RP-LC retention time was 556 s. Work on O=C(CCc1nc2ccccc2n(CC(=O)Nc2cc(F)cc(F)c2)c1=O)NCc1ccccc1 yielded an RP-LC retention time of 890 s. For O=C(NCCCN1CCOCC1)c1ccc2ccnc(N3CCN(c4ccccc4F)CC3)c2c1, the RP-LC retention time was 595 s. Compound CSc1cccc(NC(=O)N2CC(c3nc(C)no3)C3(CCOCC3)C2)c1 (configuration not stated) has an RP-LC retention time of 760 s. With CCOc1ccc(CCNC(=O)c2cc3sc(Cl)cc3n2CC)cc1OCC the RP-LC retention time was 1200 s. In the case of CCN(CC)C(=O)c1ccc2c(c1)N(CC(=O)NCc1ccc3c(c1)OCO3)C(=O)C1CCCCN21 (configuration not stated), the RP-LC retention time is reported as 826 s. Compound O=C(C1CCCN(c2nn3c(=O)c4c(nc3s2)CCCC4)C1)N1CCN(c2ccccc2F)CC1 (configuration not stated) has an RP-LC retention time of 868 s. Work on NC(=O)C1CCN(C(=O)CSc2nnc(-c3sc4ncccc4c3N)n2C2CC2)CC1 yielded an RP-LC retention time of 606 s. CCc1nnc2sc(-c3cc(C)nc4ccc(Br)cc34)nn12 showed an RP-LC retention time of 892 s. Compound O=S(=O)(c1ccc2nncn2c1)N(Cc1ccc(F)cc1)c1cccc(F)c1 has an RP-LC retention time of 861 s. Work on COc1ccc(Nc2c(-c3ccc(Cl)cc3)nc3cnccn23)cc1OC yielded an RP-LC retention time of 828 s.
